According to patent US6500431B1, “Inhibitors of angiogenesis and tumor growth” (University of Southern California, priority 1998, dated 2002):
No end group written: not given here.

Legend:
Type in all cases: cell-based
[1] = test system: KS Y-1 cells; assay: KS Y-1 cell proliferation assay (MTT); conditions: for KS Cell Proliferation, % of Control: 7,500 KS Y-1 cells/well; for KS Cell Proliferation, % of Control / Cell Proliferation Activity (% of control), KSY-1: 5 days, MTT; for Cell Proliferation Activity (% of control), KSY-1: concentration not printed
Description: (§1) To determine if Saposin B polypeptides had anti-angiogenic activity, a series of overlapping polypeptides were synthesized and tested in the KS Y-1 cell proliferation assay. The overlapping polypeptides are SEQ ID NOS:13 though 42. Cell Proliferation assays in either KS cells or fibroblast. Cells were plated in 48 well plates at equal numbers in appropriate culture medium. Cells were treated with the test compounds at various concentrations on day one, and on day 3. MTT was done on day 5. KS cells were used to represent the activated endothelial cells, while fibroblast cells represent the control cells. The results are remarkable for the lack of toxicity to the fibroblast relative to the activated endothelial cells/KS cells.

[2] = test system: T1 cells; assay: Fibroblast proliferation assay (MTT); conditions: for Cell Proliferation Activity (% of control), T1: concentration not given, 5 days; for Fibroblast Proliferation, % of Control: 5000 T1 cells/well, 7 days
Description: as §1, with “MTT was done on day 5.” left out

[3] = test system: endothelial cells (HUVEC); assay: Growth inhibition of endothelial cells; conditions: for activity against endothelial cells: Saposin C: highest concentration tested 50 μg/mL
Description: FIG. 1D: Activity of n-terminus decapeptide (DVCQDCIQMV; SEQ ID NO 21).
FIG. 1E: Activity of N-terminus pentapeptide (DVCQC; SEQ ID NO: 28).
(§2) By SDS-PAGE, the bacterial product was smaller than the eukaryotic protein. Because prokaryotically expressed proteins are not glycosylated, the difference in molecular weights probably represents the presence of carbohydrate in the eukaryotic protein. Recombinant proteins were then tested in KS, endothelial and control cell lines. Activity was found only in KS cell lines and endothelial cells.

[4] = test system: KS cell lines; assay: Activity of recombinant Prosaposin chains on growth of KS cell lines; conditions: Saposin C: highest concentration tested 50 μg/mL
From the text: In order to determine whether recombinant Saposin B has anti-angiogenic activity, the coding region of each of the Prosaposin chains was amplified from fibroblast cell lines and cloned into both bacterial (pGEX-KG) and eukaryotic (pcDNA 3.1His A) expression vectors.
The PCR products were digested with the respective restriction enzymes and the restriction products were inserted into the pGEX-KG vector for bacterial expression. pGEX-KG vector comprises a glutathione S transferase (GST)-tag at the […] of the insertion site so that a GST-fusion protein is expressed. The GST-tag is used to aid in purification of the recombinant protein. After elution from a glutathione-Sepharose 4B column, the GST-tagged proteins were incubated with thrombin (4 μg/ml) for 4 hr at room temperature (22-25° C.) in 50 mM Tris, pH 8.3, 3 mM CaCl2, 150 mM NaCl to cleave GST from the fusion protein. Free GST was removed from the preparation by passing the digested fusion protein through the glutathione-Sepharose 4B column.
as §2

[5] = first of two KSY-1 value columns
[6] = second of two KSY-1 value columns

## GDVCQDSIQMV [SEQ ID NO:33, GDVCQDSIQMV]
[1]
  IC50: 7.8 µM

## STFVQALVEHVKEECDR [SEQ ID NO:15]
[1]; 10 μg/ml
  KS Cell Proliferation, % of Control: 101.8 % of Control
[1]; 100 μg/mL
  KS Cell Proliferation, % of Control: 60.7 % of Control
[1]; 500 μg/mL
  KS Cell Proliferation, % of Control: 28.6 % of Control

## VCQDCIQMV [SEQ ID NO:29]
[1]; [5]
  Cell Proliferation Activity (% of control), KSY-1: 65 % of control
[1]; [6]
  Cell Proliferation Activity (% of control), KSY-1: 33 % of control
[2]
  Cell Proliferation Activity (% of control), T1: 86 % of control
[2]; first of two T1 value columns
  Cell Proliferation Activity (% of control), T1: 95 % of control

## QMVTDIQTQVRTNSTF [SEQ ID NO:43, QMVTDIQTQVRTNSTF]
[1]
  IC50: 14 µM

## IQMVTDIQTAVRTNSTF [SEQ ID NO:14]
[1]; 10 μg/ml
  KS Cell Proliferation, % of Control: 89.3 % of Control
[1]; 100 μg/mL
  KS Cell Proliferation, % of Control: 60.7 % of Control
[1]; 500 μg/mL
  KS Cell Proliferation, % of Control: 28.6 % of Control

## GDVCQ [SEQ ID NO:22]
[1]; 1 μg/mL
  KS Cell Proliferation, % of Control: 158.3 % of Control
[1]; 5 μg/mL
  KS Cell Proliferation, % of Control: 77.4 % of Control
[1]; 10 μg/ml
  KS Cell Proliferation, % of Control: 59.1 % of Control
[1]; 50 μg/mL
  KS Cell Proliferation, % of Control: 37.4 % of Control
[1]; [5]
  Cell Proliferation Activity (% of control), KSY-1: 59 % of control
[1]; [6]
  Cell Proliferation Activity (% of control), KSY-1: 28 % of control
[2]; 1 μg/mL
  Fibroblast Proliferation, % of Control: 95.7 % of Control
[2]; 10 μg/mL
  Fibroblast Proliferation, % of Control: 95.7 % of Control
[2]; 50 μg/mL
  Fibroblast Proliferation, % of Control: 87.0 % of Control

## DCIQMV [SEQ ID NO:23]
[1]; 1 μg/mL
  KS Cell Proliferation, % of Control: 88.7 % of Control
[1]; 5 μg/mL
  KS Cell Proliferation, % of Control: 83.5 % of Control
[1]; 10 μg/ml
  KS Cell Proliferation, % of Control: 68.7 % of Control
[1]; 50 μg/mL
  KS Cell Proliferation, % of Control: 51.3 % of Control
[1]; [5]
  Cell Proliferation Activity (% of control), KSY-1: 68 % of control
[1]; [6]
  Cell Proliferation Activity (% of control), KSY-1: 51 % of control

## GDVSQDSIQMV [SEQ ID NO:20]
[1]; 1 μg/mL
  KS Cell Proliferation, % of Control: 100.0 % of Control
[1]; 5 μg/mL
  KS Cell Proliferation, % of Control: 96.4 % of Control
[1]; 10 μg/ml
  KS Cell Proliferation, % of Control: 92.9 % of Control
[1]; 50 μg/mL
  KS Cell Proliferation, % of Control: 82.1 % of Control
[1]; [5]
  Cell Proliferation Activity (% of control), KSY-1: 93 % of control
[1]; [6]
  Cell Proliferation Activity (% of control), KSY-1: 84 % of control
[2]; 1 μg/mL
  Fibroblast Proliferation, % of Control: 91.3 % of Control
[2]; 10 μg/mL
  Fibroblast Proliferation, % of Control: 95.7 % of Control
[2]; 50 μg/mL
  Fibroblast Proliferation, % of Control: 95.7 % of Control

## DVCQDCI [SEQ ID NO:26]
[1]; [5]
  Cell Proliferation Activity (% of control), KSY-1: 72 % of control
[1]; [6]
  Cell Proliferation Activity (% of control), KSY-1: 40 % of control
[2]
  Cell Proliferation Activity (% of control), T1: 81 % of control
[2]; first of two T1 value columns
  Cell Proliferation Activity (% of control), T1: 96 % of control

## DVCQDCIQ [SEQ ID NO:25]
[1]; [5]
  Cell Proliferation Activity (% of control), KSY-1: 72 % of control
[1]; [6]
  Cell Proliferation Activity (% of control), KSY-1: 39 % of control
[2]
  Cell Proliferation Activity (% of control), T1: 89 % of control
[2]; first of two T1 value columns
  Cell Proliferation Activity (% of control), T1: 98 % of control

## DVCQDCIQMV [SEQ ID NO:21]
[1]; 1 μg/mL
  KS Cell Proliferation, % of Control: 88.7 % of Control
[1]; 5 μg/mL
  KS Cell Proliferation, % of Control: 68.7 % of Control
[1]; 10 μg/ml
  KS Cell Proliferation, % of Control: 26.1 % of Control
[1]; 50 μg/mL
  KS Cell Proliferation, % of Control: 7.0 % of Control
[1]; [5]
  Cell Proliferation Activity (% of control), KSY-1: 29 % of control
[2]; 1 μg/mL
  Fibroblast Proliferation, % of Control: 100.0 % of Control
[2]; 10 μg/mL
  Fibroblast Proliferation, % of Control: 91.3 % of Control
[2]; 50 μg/mL
  Fibroblast Proliferation, % of Control: 87.0 % of Control
[3]; FIG. 1, 1D, 1E
  growth inhibition of endothelial cells: Only endothelial cells show dose dependent growth inhibition

## QDCIQMV [SEQ ID NO:31, QDCIQMV]
[1]
  IC50: 16.6 µM
[1]; [5]
  Cell Proliferation Activity (% of control), KSY-1: 74 % of control
[2]
  Cell Proliferation Activity (% of control), T1: 80 % of control
[2]; first of two T1 value columns
  Cell Proliferation Activity (% of control), T1: 87 % of control

## QMMMHMQPKEICALVG [SEQ ID NO:18]
[1]; 10 μg/ml
  KS Cell Proliferation, % of Control: 88.9 % of Control
[1]; 100 μg/mL
  KS Cell Proliferation, % of Control: 86.4 % of Control
[1]; 500 μg/mL
  KS Cell Proliferation, % of Control: 58.0 % of Control

## CQDCIQMV [SEQ ID NO:30]
[1]; [5]
  Cell Proliferation Activity (% of control), KSY-1: 77 % of control
[1]; [6]
  Cell Proliferation Activity (% of control), KSY-1: 35 % of control
[2]
  Cell Proliferation Activity (% of control), T1: 84 % of control
[2]; first of two T1 value columns
  Cell Proliferation Activity (% of control), T1: 92 % of control

## QPKDNGDVCQDCIQV [SEQ ID NO:13]
[1]; 1 μg/mL
  KS Cell Proliferation, % of Control: 51.8 % of Control
[1]; 10 μg/ml
  KS Cell Proliferation, % of Control: 17.9 % of Control
[1]; 50 μg/mL
  KS Cell Proliferation, % of Control: 1.8 % of Control
[1]; 100 μg/mL
  KS Cell Proliferation, % of Control: 1.8 % of Control
[1]; 500 μg/mL
  KS Cell Proliferation, % of Control: 1.8 % of Control

## DVCQDCIQM [SEQ ID NO:24]
[1]; [5]
  Cell Proliferation Activity (% of control), KSY-1: 68 % of control
[1]; [6]
  Cell Proliferation Activity (% of control), KSY-1: 46 % of control
[2]
  Cell Proliferation Activity (% of control), T1: 84 % of control
[2]; first of two T1 value columns
  Cell Proliferation Activity (% of control), T1: 96 % of control

## DVCQDC [SEQ ID NO:27]
[1]; [5]
  Cell Proliferation Activity (% of control), KSY-1: 60 % of control
[1]; [6]
  Cell Proliferation Activity (% of control), KSY-1: 22 % of control
[2]
  Cell Proliferation Activity (% of control), T1: 75 % of control
[2]; first of two T1 value columns
  Cell Proliferation Activity (% of control), T1: 88 % of control

## YISQYSEIAIQMMMHMQP [SEQ ID NO:17, YISQYSEIAIQMMMHMQP]
[1]
  IC50: 20 µM
[1]; 10 μg/ml
  KS Cell Proliferation, % of Control: 96.3 % of Control
[1]; 100 μg/mL
  KS Cell Proliferation, % of Control: 86.4 % of Control
[1]; 500 μg/mL
  KS Cell Proliferation, % of Control: 46.9 % of Control

## GDVSQDCIQMV [SEQ ID NO:32, GDVSQDCIQMV]
[1]
  IC50: 18 µM

B1: Saposin C: sphingolipid-binding glycoprotein derived from Prosaposin; recombinant (protein, UniProt P07602 311-390, looked up)
Saposin-C: SDVYCEVCEFLVKEVTKLIDNNKTEKEILDAFDKMCSKLPKSLSEECQEVVDTYGSSILSILLEEVSPELVCSMLHLCSG
modifications: Saposin-C
notes: recombinant
[4]
  activity against KS cell lines: no activity
[3]
  activity against endothelial cells: no activity

B2: Saposin D: sphingolipid-binding glycoprotein derived from Prosaposin; recombinant (protein, UniProt P07602 405-486, looked up)
Saposin-D: DGGFCEVCKKLVGYLDRNLEKNSTKQEILAALEKGCSFLPDPYQKQCDQFVAEYEPVLIEILVEVMDPSFVCLKIGACPSAH
modifications: Saposin-D
notes: recombinant
[4]
  activity against KS cell lines: no activity
[3]
  activity against endothelial cells: no activity

B3: Saposin A: sphingolipid-binding glycoprotein derived from Prosaposin; recombinant (protein, UniProt P07602 60-142, looked up)
Saposin-A: SLPCDICKDVVTAAGDMLKDNATEEEILVYLEKTCDWLPKPNMSASCKEIVDSYLPVILDIIKGEMSRPGEVCSALNLCESLQ
modifications: Saposin-A
notes: recombinant
[4]
  activity against KS cell lines: no activity
[3]
  activity against endothelial cells: no activity
